Data from the NIST ThermoML archive (doi:10.1021/je700260f).

Conditions: Liquid, Vibrating tube method

FC(C(F)(F)F)C(F)(F)F [1,1,1,2,3,3,3-heptafluoropropane]
Conditions | mass density [kg/m3]
293.14 K, 33440 kPa | 1551.5
293.14 K, 33474 kPa | 1551.5
293.14 K, 33518 kPa | 1551.7
293.14 K, 33554 kPa | 1551.8
293.14 K, 33589 kPa | 1552
293.15 K, 458 kPa | 1409.2
293.15 K, 459 kPa | 1409.3
293.15 K, 461 kPa | 1409.2
293.15 K, 466 kPa | 1409.3
293.15 K, 478 kPa | 1409.2
293.15 K, 498 kPa | 1409.3
293.15 K, 525 kPa | 1409.6
293.15 K, 545 kPa | 1409.8
293.15 K, 569 kPa | 1409.9
293.15 K, 591 kPa | 1410.2
293.15 K, 616 kPa | 1410.3
293.15 K, 647 kPa | 1410.5
293.15 K, 682 kPa | 1410.9
293.15 K, 712 kPa | 1411
293.15 K, 757 kPa | 1411.3
293.15 K, 1646 kPa | 1417.7
293.15 K, 1682 kPa | 1417.8
293.15 K, 1714 kPa | 1418.1
293.15 K, 1855 kPa | 1419.1
293.15 K, 2431 kPa | 1422.8
293.15 K, 2456 kPa | 1423.1
293.15 K, 2481 kPa | 1423.1
293.15 K, 2506 kPa | 1423.3
293.15 K, 2536 kPa | 1423.7
293.15 K, 2566 kPa | 1423.7
293.15 K, 2590 kPa | 1424
293.15 K, 2619 kPa | 1424.2
293.15 K, 2653 kPa | 1424.3
293.15 K, 3787 kPa | 1431.6
293.15 K, 3853 kPa | 1432
293.15 K, 3906 kPa | 1432.2
293.15 K, 3939 kPa | 1432.5
293.15 K, 3976 kPa | 1432.7
293.15 K, 4019 kPa | 1432.9
293.15 K, 4053 kPa | 1433.1
293.15 K, 4077 kPa | 1433.4
293.15 K, 4124 kPa | 1433.7
293.15 K, 4157 kPa | 1434
293.15 K, 4195 kPa | 1434
293.15 K, 4219 kPa | 1434.2
293.15 K, 4259 kPa | 1434.4
293.15 K, 4286 kPa | 1434.6
293.15 K, 4322 kPa | 1434.7
293.15 K, 4367 kPa | 1435
293.15 K, 4394 kPa | 1435.3
293.15 K, 4425 kPa | 1435.6
293.15 K, 4452 kPa | 1435.7
293.15 K, 4488 kPa | 1435.9
293.15 K, 4515 kPa | 1435.9
293.15 K, 4556 kPa | 1436.2
293.15 K, 4587 kPa | 1436.4
293.15 K, 4614 kPa | 1436.6
293.15 K, 4655 kPa | 1436.8
293.15 K, 4687 kPa | 1437
293.15 K, 4727 kPa | 1437.2
293.15 K, 4754 kPa | 1437.4
293.15 K, 4791 kPa | 1437.7
293.15 K, 4815 kPa | 1437.8
293.15 K, 4846 kPa | 1438.1
293.15 K, 5062 kPa | 1439.2
293.15 K, 5095 kPa | 1439.5
293.15 K, 5137 kPa | 1439.6
293.15 K, 5170 kPa | 1440
293.15 K, 5198 kPa | 1440
293.15 K, 5231 kPa | 1440.3
293.15 K, 5259 kPa | 1440.4
293.15 K, 5292 kPa | 1440.6
293.15 K, 5321 kPa | 1440.8
293.15 K, 5364 kPa | 1440.9
293.15 K, 5392 kPa | 1441.2
293.15 K, 5435 kPa | 1441.5
293.15 K, 5472 kPa | 1441.7
293.15 K, 5500 kPa | 1441.9
293.15 K, 5537 kPa | 1442.1
293.15 K, 5566 kPa | 1442.2
293.15 K, 5610 kPa | 1442.3
293.15 K, 5639 kPa | 1442.6
293.15 K, 5678 kPa | 1442.8
293.15 K, 5720 kPa | 1443
293.15 K, 5755 kPa | 1443.2
293.15 K, 5784 kPa | 1443.4
293.15 K, 5818 kPa | 1443.6
293.15 K, 5848 kPa | 1443.8
293.15 K, 5896 kPa | 1444
293.15 K, 5921 kPa | 1444.1
293.15 K, 5955 kPa | 1444.4
293.15 K, 5984 kPa | 1444.6
293.15 K, 6018 kPa | 1444.7
293.15 K, 6043 kPa | 1444.8
293.15 K, 6073 kPa | 1445
293.15 K, 6113 kPa | 1445.2
293.15 K, 6138 kPa | 1445.5
293.15 K, 6174 kPa | 1445.6
293.15 K, 6205 kPa | 1445.7
293.15 K, 6235 kPa | 1445.9
293.15 K, 6260 kPa | 1446.1
293.15 K, 6295 kPa | 1446.2
293.15 K, 6323 kPa | 1446.4
293.15 K, 6351 kPa | 1446.6
293.15 K, 6375 kPa | 1446.8
293.15 K, 6408 kPa | 1446.9
293.15 K, 6437 kPa | 1447
293.15 K, 6477 kPa | 1447.3
293.15 K, 6508 kPa | 1447.5
293.15 K, 6534 kPa | 1447.6
293.15 K, 6566 kPa | 1447.6
293.15 K, 6593 kPa | 1447.9
293.15 K, 6624 kPa | 1448.1
293.15 K, 6655 kPa | 1448.4
293.15 K, 6682 kPa | 1448.4
293.15 K, 6721 kPa | 1448.5
293.15 K, 6752 kPa | 1448.8
293.15 K, 6792 kPa | 1449
293.15 K, 6823 kPa | 1449.3
293.15 K, 6862 kPa | 1449.5
293.15 K, 6885 kPa | 1449.5
293.15 K, 6918 kPa | 1449.8
293.15 K, 6944 kPa | 1449.9
293.15 K, 6979 kPa | 1450
293.15 K, 7002 kPa | 1450.1
293.15 K, 7034 kPa | 1450.4
293.15 K, 7074 kPa | 1450.7
293.15 K, 7106 kPa | 1450.7
293.15 K, 7134 kPa | 1450.8
293.15 K, 7160 kPa | 1450.9
293.15 K, 7196 kPa | 1451.2
293.15 K, 7223 kPa | 1451.4
293.15 K, 7255 kPa | 1451.5
293.15 K, 7292 kPa | 1451.6
293.15 K, 7319 kPa | 1451.9
293.15 K, 7352 kPa | 1452
293.15 K, 7380 kPa | 1452.1
293.15 K, 7413 kPa | 1452.4
293.15 K, 7445 kPa | 1452.6
293.15 K, 7478 kPa | 1452.7
293.15 K, 7506 kPa | 1452.9
293.15 K, 7543 kPa | 1453.2
293.15 K, 7575 kPa | 1453.2
293.15 K, 7829 kPa | 1454.6
293.15 K, 8576 kPa | 1458.4
293.15 K, 8615 kPa | 1458.6
293.15 K, 8640 kPa | 1458.7
293.15 K, 8669 kPa | 1458.9
293.15 K, 8716 kPa | 1459.1
293.15 K, 8745 kPa | 1459.3
293.15 K, 8774 kPa | 1459.5
293.15 K, 8814 kPa | 1459.7
293.15 K, 8862 kPa | 1459.9
293.15 K, 8888 kPa | 1460
293.15 K, 8923 kPa | 1460.2
293.15 K, 8958 kPa | 1460.4
293.15 K, 8988 kPa | 1460.5
293.15 K, 9023 kPa | 1460.7
293.15 K, 9057 kPa | 1461
293.15 K, 9081 kPa | 1461.1
293.15 K, 9121 kPa | 1461.1
293.15 K, 9156 kPa | 1461.3
293.15 K, 9182 kPa | 1461.5
293.15 K, 9258 kPa | 1461.9
293.15 K, 9989 kPa | 1465.5
293.15 K, 10025 kPa | 1465.7
293.15 K, 10056 kPa | 1465.8
293.15 K, 10087 kPa | 1465.9
293.15 K, 10128 kPa | 1466.3
293.15 K, 10154 kPa | 1466.4
293.15 K, 10195 kPa | 1466.7
293.15 K, 10240 kPa | 1466.8
293.15 K, 10275 kPa | 1466.7
293.15 K, 10316 kPa | 1467.1
293.15 K, 10555 kPa | 1468.1
293.15 K, 10597 kPa | 1468.5
293.15 K, 10638 kPa | 1468.7
293.15 K, 10669 kPa | 1468.7
293.15 K, 10706 kPa | 1469
293.15 K, 10738 kPa | 1469.2
293.15 K, 10775 kPa | 1469.4
293.15 K, 10808 kPa | 1469.4
293.15 K, 10851 kPa | 1469.6
293.15 K, 10882 kPa | 1469.7
293.15 K, 10920 kPa | 1470
293.15 K, 10958 kPa | 1470.2
293.15 K, 11044 kPa | 1470.6
293.15 K, 11082 kPa | 1470.6
293.15 K, 11132 kPa | 1470.9
293.15 K, 11159 kPa | 1471.4
293.15 K, 11209 kPa | 1471.3
293.15 K, 11254 kPa | 1471.6
293.15 K, 11292 kPa | 1471.8
293.15 K, 11324 kPa | 1471.9
293.15 K, 11368 kPa | 1472.1
293.15 K, 11401 kPa | 1472.3
293.15 K, 11439 kPa | 1472.4
293.15 K, 11473 kPa | 1472.6
293.15 K, 11518 kPa | 1472.8
293.15 K, 11556 kPa | 1472.9
293.15 K, 11601 kPa | 1473.2
293.15 K, 11629 kPa | 1473.3
293.15 K, 11668 kPa | 1473.4
293.15 K, 11713 kPa | 1473.7
293.15 K, 11752 kPa | 1473.8
